Measurements: patent publication US8440794B2, “Peptide sequences, their branched form and use thereof for antimicrobial applications” (Universita' Degli Studi di Siena, priority 2008, dated 2013)
Where a SMILES comes first, the peptide text is derived from it. Bridges are numbered along the chain shown (N, C = ends). Roman numbers before positions name the chains, in order. [ ]: non-standard residue; d: D form. βAla = NCCC(=O)O

Columns and labels:
human erythrocytes = assay type: cell-based
Method: FIG. 2. Percentage of haemolysis provoked by tetra-branched M33 peptide incubated 3 or 24 hours with human red blood cells.
Haemolysis of fresh human erythrocytes was determined using the method of Parpart, summarized as follows. A calibration curve was constructed by suspending fresh human erythrocytes in phosphate buffer (pH 7.4, 110 mM sodium phosphate) with various concentrations of NaCl and incubated for 30 min at room temperature. Samples were centrifuged at 500×g for 5 minutes, and haemoglobin release was monitored by measuring the absorbance of supernatants at 540 nm. The absorbance obtained with 0.1% NaCl corresponded to 100% lysis and that with 1% NaCl, to 0% lysis. Peptides dissolved in PBS were added to human erythrocyte solution at several concentrations. The resulting suspension was incubated separately at 37° C. for 2 h and 24 h. Release of hemoglobin was monitored by measuring the absorbance of the suspernatant at 540 nm after centrifuging and haemolysis percentage was calculated using the calibration curve.

A. baumannii MR157 = assay type: cell-based, Acinetobacter baumannii; settings: MR157, 24 h
Method: (§1) M33, […], M35 and M36 MICs were determined against strains of several bacterial species, including Gram-negative pathogens and also Staphylococcus aureus (Table 1). MICs in the micromolar range were observed against several Gram-negatives including Pseudomonas aeruginosa, Acinetobacter baumannii and most Enterobacteriaceae, with the exception of Proteus mirabilis, Serratia marcescens and Burkholderia cepacia. Activity of peptides was retained against MDR strains with various resistance mechanisms (such as extended-spectrum beta-lactamases and carbapenemases), including MDR P. aeruginosa strains from CF patients. Antimicrobial profile of M33, […] and potency were overall similar to those of polymyxin B, although M33, M34, M35 and M36 also appeared to have some activity against S. aureus (Table 1).

A. baumannii RUH 875 = assay type: cell-based, Acinetobacter baumannii; settings: RUH 875, 24 h
Method: as §1

[1] = test system: Burkholderia cepacia ORB-99; assay type: cell-based; settings: 24 h
Method: as §1

[2] = test system: Acinetobacter baumannii RUH 134; assay type: cell-based; settings: RUH 134, 24 h
Method: as §1

[3] = test system: Enterobacer aerogenes W03BG0067; assay type: cell-based; settings: 24 h
Method: as §1

[4] = test system: Enterobacter cloacae W03AN0041; assay type: cell-based; settings: W03AN0041, 24 h
Method: as §1

[5] = test system: Proteus mirabilis W03VA1017; assay type: cell-based; settings: W03VA1017, 24 h
Method: as §1

[6] = test system: Staphylococcus aureus ATCC 29213; assay type: cell-based; settings: ATCC 29213, 24 h
Method: as §1

[7] = test system: Serratia marcescens W03BG0003; assay type: cell-based; settings: W03BG0003, 24 h
Method: as §1

[8] = test system: Escherichia coli ATCC 25922; assay type: cell-based; settings: ATCC 25922, 24 h
Method: as §1

[9] = test system: Klebsiella pneumoniae ATCC 13833; assay type: cell-based; settings: ATCC 13833, 24 h
Method: as §1

[10] = test system: Pseudomonas aeruginosa ATCC 27853; assay type: cell-based; settings: ATCC 27853, 24 h
Method: as §1

E. coli W03BG0025 = assay type: cell-based, Escherichia coli; settings: W03BG0025, 24 h
Method: as §1

S. aureus 3851 = assay type: cell-based, Staphylococcus aureus; settings: 3851, 24 h
Method: as §1

K pneumoniae FIPP-1 = assay type: cell-based, Klebsiella pneumoniae; settings: FIPP-1, 24 h
Method: as §1

K pneumoniae C8-27 = assay type: cell-based, Klebsiella pneumoniae; settings: C8-27, 24 h
Method: as §1

K pneumoniae 7086042 = assay type: cell-based, Klebsiella pneumoniae; settings: 7086042, 24 h
Method: as §1

[11] = test system: P. aeruginosa SC-BGr12-02; assay type: cell-based, Pseudomonas aeruginosa; settings: SC-BGr12-02, 24 h
Method: as §1

[12] = test system: P. aeruginosa SC-GMm03-05; assay type: cell-based, Pseudomonas aeruginosa; settings: SC-GMm03-05, 24 h
Method: as §1

P. aeruginosa AV65 = assay type: cell-based, Pseudomonas aeruginosa; settings: AV65, 24 h
Method: as §1

[13] = test system: P. aeruginosa SC-MDr03-06; assay type: cell-based, Pseudomonas aeruginosa; settings: SC-MDr03-06, 24 h
Method: as §1

P. aeruginosa EF-OBG6-1 = assay type: cell-based, Pseudomonas aeruginosa; settings: EF-OBG6-1, 24 h
Method: as §1

P. aeruginosa VR-143/97 = assay type: cell-based, Pseudomonas aeruginosa; settings: VR-143/97, 24 h
Method: as §1

[14] = test system: P. aeruginosa SC-VMr04-05; assay type: cell-based, Pseudomonas aeruginosa; settings: SC-VMr04-05, 24 h
Method: as §1

[15] = test system: P. aeruginosa SC-DMr05-04; assay type: cell-based, Pseudomonas aeruginosa; settings: SC-DMr05-04, 24 h
Method: as §1

[16] = test system: P. aeruginosa SC-MDm03-02; assay type: cell-based, Pseudomonas aeruginosa; settings: SC-MDm03-02, 24 h
Method: as §1

P. aeruginosa PAO-1 = assay type: cell-based, Pseudomonas aeruginosa; settings: PAO-1, 24 h
Method: as §1

[17] = test system: P. aeruginosa SC-CNm03-07; assay type: cell-based, Pseudomonas aeruginosa; settings: SC-CNm03-07, 24 h
Method: as §1

CC[C@H](C)[C@H](NC(=O)[C@H](CCCNC(=N)N)NC(=O)[C@@H](N)CCCCN)C(=O)N[C@@H](CCCNC(=N)N)C(=O)N[C@H](C(=O)N[C@@H](CCCNC(=N)N)C(=O)N[C@@H](CC(C)C)C(=O)N[C@@H](CO)C(=O)N[C@@H](C)C(=O)NCCCC[C@H](NC(=O)[C@H](C)NC(=O)[C@H](CO)NC(=O)[C@H](CC(C)C)NC(=O)[C@H](CCCNC(=N)N)NC(=O)[C@@H](NC(=O)[C@H](CCCNC(=N)N)NC(=O)[C@@H](NC(=O)[C@H](CCCNC(=N)N)NC(=O)[C@@H](N)CCCCN)[C@@H](C)CC)C(C)C)C(=O)NCCCC[C@H](NC(=O)[C@H](CCCCNC(=O)[C@H](C)NC(=O)[C@H](CO)NC(=O)[C@H](CC(C)C)NC(=O)[C@H](CCCNC(=N)N)NC(=O)[C@@H](NC(=O)[C@H](CCCNC(=N)N)NC(=O)[C@@H](NC(=O)[C@H](CCCNC(=N)N)NC(=O)[C@@H](N)CCCCN)[C@@H](C)CC)C(C)C)NC(=O)[C@H](C)NC(=O)[C@H](CO)NC(=O)[C@H](CC(C)C)NC(=O)[C@H](CCCNC(=N)N)NC(=O)[C@@H](NC(=O)[C@H](CCCNC(=N)N)NC(=O)[C@@H](NC(=O)[C@H](CCCNC(=N)N)NC(=O)[C@@H](N)CCCCN)[C@@H](C)CC)C(C)C)C(=O)NCCC(=O)O)C(C)C [M35, KRIRVRLSA] (I: H-KRIRVRLSAKK[βAla]-OH / II: H-KRIRVRLSAK / III: H-KRIRVRLSA / IV: H-KRIRVRLSA; amide I:10-IV:C, I:11-II:C, II:10-III:C; N-terminus assumed)
1.5 µM: MIC [2] | MIC [3] | MIC [4] | MIC [8] | MIC [10] | MIC (E. coli W03BG0025) | MIC (K pneumoniae C8-27) | MIC [11] | MIC [12] | MIC (P. aeruginosa AV65) | MIC (P. aeruginosa EF-OBG6-1) | MIC (P. aeruginosa VR-143/97) | MIC [15] | MIC (P. aeruginosa PAO-1) | MIC [17]
>24 µM: MIC [1] | MIC [5] | MIC [7]
6 µM: MIC [6] | MIC (S. aureus 3851)
3 µM: MIC (A. baumannii MR157) | MIC (A. baumannii RUH 875) | MIC [9] | MIC (K pneumoniae FIPP-1) | MIC (K pneumoniae 7086042) | MIC [13] | MIC [14] | MIC [16]
practically negligible haemolysis grade: Haemolysis of human red blood cells (human erythrocytes)
